Data on three molecules can be found in patent US20060078630A1, “Method for the production of flavonoid-containing compositions and use thereof” (priority 2003, published 2006).

Experiment [1] is described as follows: Antioxidant effect by the TEAC III method. It is filed as biochemical. Conditions: in comparison with Trolox and ascorbic acid. How it is done:
The relative antioxidant effect of […] extract was determined by the TEAC III method in comparison with Trolox and ascorbic acid: The TEAC III method and other methods are described in Böhm V. (2000) Ernährungsumschau 47, pages 372-375.

The subject of experiment [2] is phytohaemagglutinin-stimulated mononuclear cells from peripheral blood. Briefly: Inhibition of proliferation of stimulated mononuclear cells by individual flavonoids (3H-thymidine incorporation). It is filed as cell-based, human. Conditions: luteolin, luteolin-7-glucoside, apigenin at 64-2 μg/ml; 1 μg/ml phytohaemagglutinin; 24 h + 18 h 3H-thymidine; FIG. 3b. How it is done: For this purpose, mononuclear cells from the peripheral blood of a health donor were isolated via Ficoll density gradients and incubated in RPMI medium with 5% foetal calf serum in microtitre plates. The cells were incubated in triplicates with the flavonoids luteolin, luteolin-7-glucoside and apigenin. The pure substances were dissolved in 70% ethanol and further diluted in medium. The final concentrations were 64, 32, 16, 8, 4, 2 and 0 μg/ml. After addition of the flavonoids, the cells were stimulated with 1 μg/ml of phytohaemagglutinin and incubated for 24 h in an incubator at 37° C. After addition of 1 μCurie of radioactive ^3H-thymidine, the cells were incubated for a further 18 h, and the incorporated radioactivity was then measured in a scintillation counter (Canberra-Packard).
In general terms: Uptake of a labelled nucleoside into DNA is a usual measure of proliferation.

Experiment [3] has as its system activated mononuclear cells (lymphocytes). Put plainly: Induction of apoptosis in activated mononuclear cells (cell death detection ELISA). The format is cell-based. The note with it: individual flavonoids contained in the extracts; FIG. 5b. As to the method: After addition of the additives, the cells were stimulated with 1 μg/ml of phytohaemagglutinin and incubated for 48 h in an incubator. The apoptosis induction was then determined by measuring the oligonucleosomes (low molecular weight DNA fragments) formed in the cells (cell death detection ELISA). […] The apoptosis induction could be blocked by a caspase inhibitor, i.e. is caspase-induced (FIG. 5a).
(In general: In an ELISA, binding on a coated surface is turned into a signal by an enzyme label.)

The molecule `O=C1O[C@H]([C@@H](O)CO)C(O)=C1O` [Ascorbic acid] registered a relative antioxidant effect in experiment [1] of 1.1.

With `Cc1c(C)c2c(c(C)c1O)CCC(C)(C(=O)O)O2` (stereo not shown) [Trolox], the relative antioxidant effect in experiment [1] was 1.0.

Take `O=c1cc(-c2ccc(O)c(O)c2)oc2cc(O)cc(O)c12` [luteolin]: in experiment [2], the “proliferation-inhibiting effect among individual flavonoids” value is “strongest proliferation-inhibiting effect”. Besides, the “apoptosis-inducing activity among individual flavonoids” value in experiment [3] is given as “strongest apoptosis-inducing activity”.
